In series [1] the target is T1, DgoR (BW WT DgoR) (Escherichia coli, UniProt P31460, R71C).
T1 construct: full length (229 aa), C-terminal 6XHis tag, expressed from Ptrc in pRC10 in E. coli BL21(DE3), Co-NTA purified; dimer
T1 sequence (P31460 1-229 R71C): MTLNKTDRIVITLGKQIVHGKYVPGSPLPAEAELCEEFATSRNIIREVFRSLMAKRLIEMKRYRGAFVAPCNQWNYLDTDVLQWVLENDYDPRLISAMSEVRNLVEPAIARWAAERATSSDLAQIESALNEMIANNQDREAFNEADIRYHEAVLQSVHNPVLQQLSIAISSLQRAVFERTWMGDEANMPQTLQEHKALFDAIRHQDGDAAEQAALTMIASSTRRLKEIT
Put plainly: label-free microscale thermophoresis. Format: binding.

For series [2], the target named is T2, DgoR (BW WT DgoR) (Escherichia coli, UniProt P31460, A152E).
T2 construct: full length (229 aa), C-terminal 6XHis tag, expressed from Ptrc in pRC10 in E. coli BL21(DE3), Co-NTA purified; dimer
T2 sequence (P31460 1-229 A152E): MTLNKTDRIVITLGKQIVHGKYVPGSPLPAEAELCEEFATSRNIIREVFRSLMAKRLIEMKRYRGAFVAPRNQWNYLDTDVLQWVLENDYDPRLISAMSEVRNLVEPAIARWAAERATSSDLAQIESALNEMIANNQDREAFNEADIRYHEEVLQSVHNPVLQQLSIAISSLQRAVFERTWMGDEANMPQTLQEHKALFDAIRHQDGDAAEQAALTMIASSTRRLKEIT
Put plainly: label-free microscale thermophoresis. Format: binding.

The target in series [3] is T3, DgoR (BW WT DgoR) (Escherichia coli, UniProt P31460).
T3 construct: full length (229 aa), C-terminal 6XHis tag, expressed from Ptrc in pRC10 in E. coli BL21(DE3), Co-NTA purified; dimer
T3 sequence (P31460 1-229): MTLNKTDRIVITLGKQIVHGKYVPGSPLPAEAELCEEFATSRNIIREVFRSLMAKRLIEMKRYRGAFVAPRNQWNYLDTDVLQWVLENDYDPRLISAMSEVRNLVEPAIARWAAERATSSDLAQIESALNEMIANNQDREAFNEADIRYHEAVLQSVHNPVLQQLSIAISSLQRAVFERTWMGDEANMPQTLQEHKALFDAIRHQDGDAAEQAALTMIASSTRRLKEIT
Put plainly: label-free microscale thermophoresis. Format: binding. On the technique in general: MST reads how a fluorescent partner responds to local heating, with and without ligand.

In series [4] the target is T4, DgoR WT (Escherichia coli BW, UniProt P31460 1-229).
T4 sequence: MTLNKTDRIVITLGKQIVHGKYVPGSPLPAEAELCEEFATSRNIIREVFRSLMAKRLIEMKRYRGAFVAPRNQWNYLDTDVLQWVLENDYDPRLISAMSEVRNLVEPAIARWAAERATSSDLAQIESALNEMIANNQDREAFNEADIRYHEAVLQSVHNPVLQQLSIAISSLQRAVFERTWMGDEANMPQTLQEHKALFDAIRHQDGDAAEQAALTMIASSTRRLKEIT
The experiment in a line: EMSA; no effector; apparent Kd, Hill fit; 10 nM DNA, 50 mM Tris pH 8.5, 10 mM MgCl2, 265 mM NaCl, 1 mM PMSF, 12% glycerol, 2 mM DTT, 1 ug herring sperm DNA per 20 uL, 27 C 30 min; effector pre-incubation 37 C 20 min; 8% native PAGE 0.5x TBE. The conditions noted are these: protein: recombinant; tags: C-terminal 6xHis; chain copies: 2; label: 5'-Cy5 on strand 1; blunt. For orientation: Mobility shift assays separate free from complexed probe on a gel.

As to `O=C(O)[C@H](O)[C@@H](O)[C@@H](O)[C@H](O)CO` [D-galactonate], the Kd is 32.9 ± 1.2 µM in series [1], 11.3 ± 0.2 µM in series [2] and 10.3 ± 0.3 µM in series [3].

B1: dgo promoter probe GA149/GA150 (dsDNA)
DNA 1: GTGATCTAAATTGTAGTACAACAATATAAGTTTGTACTACATTACACGCACG
DNA 2: CGTGCGTGTAATGTAGTACAAACTTATATTGTTGTACTACAATTTAGATCAC
With B1, the Kd in series [4] was found to be 0.494 ± 0.019 µM.

(Values after article PMC12288454, “Functional consequences of genetic variations in DgoR, a GntR/FadR family transcriptional repressor of D-galactonate metabolism in Escherichia coli” (Journal of Bacteriology, 2025).)
